We go through one molecule from ChEMBL document CHEMBL1158315, “Sclerotiamide: a new member of the paraherquamide class with potent antiinsectan activity from the sclerotia of Aspergillus sclerotiorum” (1996).

Each structure is given as a SMILES string. The source made the active and inactive calls. The calls are words filed in the database; no cut-off is given here.

Test [1] can be described thus: Cytotoxicity against human NCI60 cells. It counts as functional.
For test [2], the system named is Helicoverpa zea. The experiment in a line: Insecticidal activity against corn ear worm first instar larvae assessed as reduction in growth at 200 ppm administered with standard test diet relative to control. On the set-up: scale not given: the % may be the effect or the level left. It counts as functional.
In test [3] the test system is Helicoverpa zea. The experiment in a line: Insecticidal activity against corn ear worm first instar larvae assessed as blackened in dead larvae at 200 ppm administered with standard test diet. It counts as functional, organism-based.
Test [4] has as its system Helicoverpa zea. The experiment in a line: Insecticidal activity against corn ear worm first instar larvae assessed as mortality at 200 ppm administered with standard test diet. Type of test: functional.
The subject of a further test is Carpophilus. The experiment in a line: Antifeedant activity against Carpophilus hemipterus adult assessed as reduction in feeding rate at 100 ppm. Type of test: functional.
Test [5] concerns Helicoverpa zea. The experiment in a line: Insecticidal activity against corn ear worm first instar larvae assessed as laterally shriveled in dead larvae at 200 ppm administered with standard test diet. It counts as functional, organism-based.
In test [6] the test system is Helicoverpa zea. The experiment in a line: Insecticidal activity against corn ear worm first instar larvae assessed as cuticle/exoskeleton rupture in dead larvae at 200 ppm administered with standard test diet. Type of test: functional, organism-based.
For test [7], the system named is Helicoverpa zea. The experiment in a line: Insecticidal activity against corn ear worm first instar larvae assessed as bloating of area just prior to rear body in surviving larvae at 200 ppm administered with standard test diet. It counts as functional, organism-based.

The term GI50 denotes the concentration at which growth is held to half of that of the control. On to `CC1(C)C=Cc2c(ccc3c2NC(=O)[C@@]32[C@H](O)[C@@]34NC(=O)[C@]5(CCCN5C3=O)C[C@H]4C2(C)C)O1` [SCLEROTIAMIDE], for which the Activity was 44% in test [1], 98% in the test with Helicoverpa zea [2] and 46% with Helicoverpa zea [4]. The result in the test on Helicoverpa zea [3], in the test on Helicoverpa zea [5], with Helicoverpa zea [6] and in the test on Helicoverpa zea [7] was Active. In addition, in the test with Carpophilus, the GI50 was greater than 25 µg/mL.
